Structures can show the parent of a compound that is named as a salt.

The test system of this assay is ZIKV replicon in Vero cells. Nature of the assay: ZIKV Replication Inhibition Assay (replicon, NanoLuc). As to conditions: Zika virus, Vero, 72 h, read-out: Zika Replicon EC50. On the technique in general: A replicon is a self-replicating genome or part of one, used to study replication in cells.
What is called EC50 is the concentration at which the effect is half-maximal. Turning to `NC[C@@H](Cc1ccccc1)[n+]1cc([N-]C(=O)Nc2cccc(C(F)(F)F)c2)on1` [Example 49, (R)-(3-(1-amino-3-phenylpropan-2-yl)-1,2,3-oxadiazol-3-ium-5-yl)((3-(trifluoromethyl)phenyl)carbamoyl)amide formate], the EC50 is above 20000 nM.
Then `NC[C@H](Cc1ccccc1)[n+]1cc([N-]C(=O)Nc2cccc(C(F)(F)F)c2)on1` [Example 54, (S)-(3-(1-amino-3-phenylpropan-2-yl)-1,2,3-oxadiazol-3-ium-5-yl)((3-(trifluoromethyl)phenyl)carbamoyl)amide formate], with above 20000 nM; and `O=C([N-]c1c[n+](Cc2ccc(-c3ccc(CN4CCOCC4)cc3)cc2)no1)Nc1cccc(C(F)(F)F)c1` [Example 56, (3-((4′-(morpholinomethyl)-[1,1′-biphenyl]-4-yl)methyl)-1,2,3-oxadiazol-3-ium-5-yl)((3-(trifluoromethyl)phenyl)carbamoyl)amide], with 1000 to 20000 nM; and `NC[C@H](Cc1ccc(-c2ccccc2)cc1)[n+]1cc([N-]C(=O)Nc2cccc(C(F)(F)F)c2)on1` [Example 65, (S)-(3-(1-([1,1′-biphenyl]-4-yl)-3-aminopropan-2-yl)-1,2,3-oxadiazol-3-ium-5-yl)((3-(trifluoromethyl)phenyl)carbamoyl)amide formate], with 1000 to 20000 nM.
`NC[C@@H](Cc1ccc(-c2ccccc2)cc1)[n+]1cc([N-]C(=O)Nc2cccc(C(F)(F)F)c2)on1` [Example 66, (R)-(3-(1-([1,1′-biphenyl]-4-yl)-3-aminopropan-2-yl)-1,2,3-oxadiazol-3-ium-5-yl)((3-(trifluoromethyl)phenyl)carbamoyl)amide]: the 50% effective concentration (EC50) was in the range of 1000 to 20000 nM.
For `CC(=O)NC[C@H](Cc1ccc(-c2ccccc2)cc1)[n+]1cc([N-]C(=O)Nc2cccc(C(F)(F)F)c2)on1` [Example 70, (S)-(3-(1-(1,1′-biphenyl-4-yl)-3-acetamidopropan-2-yl)-1,2,3-oxadiazol-3-ium-5-yl)((3-(trifluoromethyl)phenyl)carbamoyl)amide], the EC50 is above 20000 nM.
To `CC(=O)NC[C@@H](Cc1ccc(-c2ccccc2)cc1)[n+]1cc([N-]C(=O)Nc2cccc(C(F)(F)F)c2)on1` [Example 71, (R)-(3-(1-([1,1′-biphenyl]-4-yl)-3-acetamidopropan-2-yl)-1,2,3-oxadiazol-3-ium-5-yl)((3-(trifluoromethyl)phenyl)carbamoyl)amide] belongs above 20000 nM; to `C[C@@H](c1ccc(Br)cc1)[n+]1cc([N-]C(=O)Nc2cncc(C(F)(F)F)c2)on1` [Example 76, (S)-(3-(1-(4-bromophenyl)ethyl)-1,2,3-oxadiazol-3-ium-5-yl)((5-(trifluoromethyl)pyridin-3-yl)carbamoyl)amide], 100 to 1000 nM.
Turning to `C[C@@H](c1ccc(-c2cncnc2)cc1)[n+]1cc([N-]C(=O)Nc2cncc(C(F)(F)F)c2)on1` [Example 77, (S)-(3-(1-(4-(pyrimidin-5-yl)phenyl)ethyl)-1,2,3-oxadiazol-3-ium-5-yl)((5-(trifluoromethyl)pyridin-3-yl)carbamoyl)amide], the EC50 was 100 to 1000 nM.
Then `Cc1noc(C)c1-c1ccc(C[n+]2cc([N-]C(=O)Nc3cccc(C(F)(F)F)c3)on2)cc1` [Example 78, (3-(4-(3,5-dimethylisoxazol-4-yl)benzyl)-1,2,3-oxadiazol-3-ium-5-yl)((3-(trifluoromethyl)phenyl)carbamoyl)amide], with below 100 nM; and `Cc1ncncc1-c1ccc([C@H](C)[n+]2cc([N-]C(=O)Nc3cccc(C(F)(F)F)c3)on2)cc1` [Example 79, (S)-(3-(1-(4-(4-methylpyrimidin-5-yl)phenyl)ethyl)-1,2,3-oxadiazol-3-ium-5-yl)((3-(trifluoromethyl)phenyl)carbamoyl)amide], with below 100 nM; and `O=C([N-]c1c[n+](Cc2ccc(-c3cncnc3C(F)(F)F)cc2)no1)Nc1cccc(C(F)(F)F)c1` [Example 80, ((3-(trifluoromethyl)phenyl)carbamoyl)(3-(4-(4-(trifluoromethyl)pyrimidin-5-yl)benzyl)-1,2,3-oxadiazol-3-ium-5-yl)amide], with below 100 nM.
Take `Cc1ncnc(C)c1-c1ccc(C[n+]2cc([N-]C(=O)Nc3cccc(C(F)(F)F)c3)on2)cc1` [Example 81, (3-(4-(4,6-dimethylpyrimidin-5-yl)benzyl)-1,2,3-oxadiazol-3-ium-5-yl)((3-(trifluoromethyl)phenyl)carbamoyl)amide]: the EC50 was below 100 nM.
To `Cc1ncncc1-c1ccc([C@@H](C)[n+]2cc([N-]C(=O)Nc3cccc(C(F)(F)F)c3)on2)cc1` [Example 82, (R)-(3-(1-(4-(4-methylpyrimidin-5-yl)phenyl)ethyl)-1,2,3-oxadiazol-3-ium-5-yl)((3-(trifluoromethyl)phenyl)carbamoyl)amide] belongs 100 to 1000 nM.
Turning to `Cc1ncncc1-c1cccc(C[n+]2cc([N-]C(=O)Nc3cccc(C(F)(F)F)c3)on2)c1` [Example 83, (3-(3-(4-methylpyrimidin-5-yl)benzyl)-1,2,3-oxadiazol-3-ium-5-yl)((3-(trifluoromethyl)phenyl)carbamoyl)amide], the EC50 is 100 to 1000 nM.
For `COc1ncncc1-c1cccc(C[n+]2cc([N-]C(=O)Nc3cccc(C(F)(F)F)c3)on2)c1` [Example 84, (3-(3-(4-methoxypyrimidin-5-yl)benzyl)-1,2,3-oxadiazol-3-ium-5-yl)((3-(trifluoromethyl)phenyl)carbamoyl)amide], the concentration for a half-maximal effect (EC50) lay in the range of 100 to 1000 nM.
For `Cc1ccncc1-c1ccc(C[n+]2cc([N-]C(=O)Nc3cccc(C(F)(F)F)c3)on2)cc1` [Example 85, (3-(4-(4-methylpyridin-3-yl)benzyl)-1,2,3-oxadiazol-3-ium-5-yl)((3-(trifluoromethyl)phenyl)carbamoyl)amide], the half-maximal effective concentration (EC50) is below 100 nM.
To `Cc1nccnc1-c1ccc(C[n+]2cc([N-]C(=O)Nc3cccc(C(F)(F)F)c3)on2)cc1` [Example 86, (3-(4-(3-methylpyrazin-2-yl)benzyl)-1,2,3-oxadiazol-3-ium-5-yl)((3-(trifluoromethyl)phenyl)carbamoyl)amide] belongs 100 to 1000 nM; to `Cc1cc(C[n+]2cc([N-]C(=O)Nc3cccc(C(F)(F)F)c3)on2)ccc1-c1cncnc1` [Example 87, (3-(3-methyl-4-(pyrimidin-5-yl)benzyl)-1,2,3-oxadiazol-3-ium-5-yl)((3-(trifluoromethyl)phenyl)carbamoyl)amide], 100 to 1000 nM.
In the case of `Cc1cc(C[n+]2cc([N-]C(=O)Nc3cccc(C(F)(F)F)c3)on2)ccc1-c1c(C)noc1C` [Example 88, (3-(4-(3,5-Dimethylisoxazol-4-yl)-3-methylbenzyl)-1,2,3-oxadiazol-3-ium-5-yl)((3-(trifluoromethyl)phenyl)carbamoyl)amide], the EC50 is below 100 nM.
To `Cc1nc(OCCO)ncc1-c1ccc(C[n+]2cc([N-]C(=O)Nc3cccc(C(F)(F)F)c3)on2)cc1` [Example 89, (3-(4-(2-(2-hydroxyethoxy)-4-methylpyrimidin-5-yl)benzyl)-1,2,3-oxadiazol-3-ium-5-yl)((3-(trifluoromethyl)phenyl)carbamoyl)amide] belongs 100 to 1000 nM; to `COc1ncc(-c2ccc(C[n+]3cc([N-]C(=O)Nc4cccc(C(F)(F)F)c4)on3)cc2)c(C)n1` [Example 90, (3-(4-(2-Methoxy-4-methylpyrimidin-5-yl)benzyl)-1,2,3-oxadiazol-3-ium-5-yl)((3-(trifluoromethyl)phenyl)carbamoyl)amide], below 100 nM.
